According to ChEMBL document CHEMBL1127819, “Classical and nonclassical furo[2,3-d]pyrimidines as novel antifolates: synthesis and biological activities” (J Med Chem, 1994):

Experiments:
[1] = biological target: T1, Bifunctional dihydrofolate reductase-thymidylate synthase (Toxoplasma gondii, UniProt Q07422)
T1 sequence (Q07422 whole entry): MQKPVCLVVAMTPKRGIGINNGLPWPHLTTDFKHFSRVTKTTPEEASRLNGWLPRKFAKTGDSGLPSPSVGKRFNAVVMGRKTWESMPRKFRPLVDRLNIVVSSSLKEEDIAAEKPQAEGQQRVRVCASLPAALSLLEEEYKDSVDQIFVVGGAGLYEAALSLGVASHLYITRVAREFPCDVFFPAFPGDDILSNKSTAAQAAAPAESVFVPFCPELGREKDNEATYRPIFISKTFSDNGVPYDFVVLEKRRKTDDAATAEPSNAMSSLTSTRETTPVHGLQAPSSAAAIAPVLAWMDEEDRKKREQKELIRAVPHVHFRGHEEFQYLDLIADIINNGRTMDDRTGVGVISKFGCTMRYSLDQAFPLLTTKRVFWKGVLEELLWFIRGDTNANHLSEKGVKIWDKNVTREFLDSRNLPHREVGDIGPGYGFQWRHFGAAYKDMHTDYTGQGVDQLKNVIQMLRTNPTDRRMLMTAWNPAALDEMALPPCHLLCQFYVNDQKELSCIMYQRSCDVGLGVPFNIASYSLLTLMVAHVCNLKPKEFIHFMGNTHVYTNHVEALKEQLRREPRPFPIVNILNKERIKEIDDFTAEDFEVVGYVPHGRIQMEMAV
Description: Inhibitory concentration for DHFR in Toxoplasma gondii

ACHN = assay: Inhibitory activity against kidney A-CHN tumor cell growth in culture; format: functional, cell-based; settings: Homo sapiens
Dihydrofolate reductase [2] = biological target: T2, Dihydrofolate reductase (Homo sapiens, UniProt P00374); assay: Inhibitory concentration for DHFR in recombinant human
T2 sequence (P00374 whole entry): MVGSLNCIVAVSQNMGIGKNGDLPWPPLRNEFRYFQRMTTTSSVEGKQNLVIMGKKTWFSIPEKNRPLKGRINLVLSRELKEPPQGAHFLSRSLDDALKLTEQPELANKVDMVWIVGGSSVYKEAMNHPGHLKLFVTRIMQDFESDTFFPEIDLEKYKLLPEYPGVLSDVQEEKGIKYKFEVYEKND

Dihydrofolate reductase [3] = biological target: Dihydrofolate reductase (Lactobacillus casei, UniProt P00381)
Dihydrofolate reductase (Lactobacillus casei, UniProt P00381), sequence (P00381 whole entry): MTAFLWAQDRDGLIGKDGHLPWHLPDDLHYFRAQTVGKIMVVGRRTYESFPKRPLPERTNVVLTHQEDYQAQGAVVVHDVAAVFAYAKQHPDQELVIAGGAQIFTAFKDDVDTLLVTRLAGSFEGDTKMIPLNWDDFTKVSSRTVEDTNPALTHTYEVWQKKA
Description: Inhibitory concentration for DHFR in Lactobacillus casei

SK-5 = assay: Inhibitory activity against melanoma SK-5 tumor cell growth in culture; format: functional, cell-based; settings: Homo sapiens
Dihydrofolate reductase [4] = biological target: T3, Dihydrofolate reductase (Rattus norvegicus, UniProt Q920D2)
T3 sequence (Q920D2 whole entry): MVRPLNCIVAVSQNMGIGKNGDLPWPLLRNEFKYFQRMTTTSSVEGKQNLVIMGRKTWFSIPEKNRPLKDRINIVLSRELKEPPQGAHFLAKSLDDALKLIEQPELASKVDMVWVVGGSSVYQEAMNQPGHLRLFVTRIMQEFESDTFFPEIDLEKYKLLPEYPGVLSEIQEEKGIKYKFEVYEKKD
Description: Inhibitory concentration for DHFR in rat liver

CCRF-CEM [5] = assay: Inhibitory activity against CCRF-CEM tumor cell growth in culture; format: functional, cell-based; settings: Homo sapiens
Dihydrofolate reductase [6] = biological target: T4, Dihydrofolate reductase (Pneumocystis carinii, UniProt P16184); assay: Inhibitory concentration for DHFR in Pneumocystis carinii
T4 sequence (P16184 whole entry): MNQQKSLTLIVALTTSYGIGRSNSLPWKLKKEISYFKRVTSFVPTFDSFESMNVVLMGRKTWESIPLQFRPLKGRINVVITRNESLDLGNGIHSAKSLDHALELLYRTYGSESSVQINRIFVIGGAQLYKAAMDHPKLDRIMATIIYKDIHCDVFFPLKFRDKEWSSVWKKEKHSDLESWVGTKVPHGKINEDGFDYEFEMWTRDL

FaDu [7] = assay: Protection of FaDu cells from growth inhibitory effects of compound with no addition; format: functional, Homo sapiens; set-up: scale not given: the % may be the effect or the level left
K562 = assay: Growth inhibitory concentration against tumor cells in culture leukemia cell line, K-562; format: functional, Homo sapiens
IGROV-1 = assay: Growth inhibitory concentration against tumor cells in culture ovarian cancer IGROV-1; format: functional, Homo sapiens
PC-3 = assay: Growth inhibitory concentration against tumor cells in culture prostate cancer PC-3; format: functional, Homo sapiens
786-0 = assay: Growth inhibitory concentration against tumor cells in culture renal cancer […] cell line; format: functional, Homo sapiens
CCRF-CEM [8] = assay: Growth inhibition of methotrexate resistant human T-lymphoblastic leukemia cell subline CEM/MTX; format: functional, cell-based
R30dm-CCRF-CEM [9] = assay: Growth inhibition of methotrexate resistant human T-lymphoblastic leukemia cell subline R30dm; format: functional, cell-based
[10] = test system: folylpolyglutamate synthetase (FPGS); assay: (§1) Activity is determined as substrate for CCRF-CEM human leukemia cell folyl-poly-glutamate synthetase; format: ADME; settings: folylpolyglutamate synthetase from CCRF-CEM leukemia cells
Homo sapiens = organism: Homo sapiens; assay: as §1; format: ADME
MDA-N = assay: Growth inhibitory concentration against tumor cells in culture breast cancer cell line, MDA-N; format: functional, Homo sapiens
FaDu [11] = assay: Protection of FaDu cells from growth inhibitory effects of compound by combination of 50 uM hypoxanthine (Hx) and 40 uM thymidine (TdR); format: functional, Homo sapiens; set-up: scale not given: the % may be the effect or the level left
FaDu [12] = assay: Protection of FaDu cells from growth inhibitory effects of compound by 40 uM thymidine (TdR); format: functional, Homo sapiens; set-up: scale not given: the % may be the effect or the level left
HCT-116 = assay: Growth inhibitory concentration against tumor cells in culture colon cancer HCT116; format: functional, Homo sapiens
NCI-H460 = assay: Growth inhibitory concentration against tumor cells in culture non-small-cell-lung NCI-H460; format: functional, Homo sapiens
LOX IMVI = assay: Growth inhibitory concentration against tumor cells in culture melanoma LOX-IMVI; format: functional, Homo sapiens
FaDu [13] = assay: Protection of FaDu cells from growth inhibitory effects of compound by 50 uM hypoxanthine (Hx); format: functional, Homo sapiens; set-up: scale not given: the % may be the effect or the level left
MCF7 = assay: Growth inhibitory concentration against tumor cells in culture breast cancer cell line, MCF-7; format: functional, Homo sapiens
MDA-MB-435 = assay: Growth inhibitory concentration against tumor cells in culture breast cancer cell line, MDA-MB-435; format: functional, Homo sapiens
SF-268 = assay: Growth inhibitory concentration against tumor cells in culture CNS cancer cell line, SF-268; format: functional, Homo sapiens
U-251 = assay: Growth inhibitory concentration against tumor cells in cultureCNS cancer cell line, U-251; format: functional, Homo sapiens
HL-60 = assay: Growth inhibitory concentration against tumor cells in culture leukemia cell line, HL-60(TB); format: functional, Homo sapiens
Thymidylate synthase [14] = biological target: Thymidylate synthase (Lactobacillus casei, UniProt P00469); assay: Inhibitory concentration for TS in Lactobacillus casei; set-up: species or system Lacticaseibacillus casei
Thymidylate synthase (Lactobacillus casei, UniProt P00469), sequence (P00469 whole entry): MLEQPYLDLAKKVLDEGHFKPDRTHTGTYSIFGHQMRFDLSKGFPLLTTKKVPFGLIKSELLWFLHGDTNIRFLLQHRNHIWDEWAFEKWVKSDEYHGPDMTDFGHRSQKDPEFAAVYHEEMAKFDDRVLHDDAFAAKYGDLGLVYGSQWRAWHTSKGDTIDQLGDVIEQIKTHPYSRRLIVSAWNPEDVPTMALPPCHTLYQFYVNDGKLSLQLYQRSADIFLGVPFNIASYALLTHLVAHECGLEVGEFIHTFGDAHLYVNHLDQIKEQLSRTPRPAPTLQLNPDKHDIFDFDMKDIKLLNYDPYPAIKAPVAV

Thymidylate synthase [15] = biological target: Thymidylate synthase (Homo sapiens, UniProt P04818); assay: Inhibitory concentration for TS in human
Thymidylate synthase (Homo sapiens, UniProt P04818), sequence (P04818 whole entry): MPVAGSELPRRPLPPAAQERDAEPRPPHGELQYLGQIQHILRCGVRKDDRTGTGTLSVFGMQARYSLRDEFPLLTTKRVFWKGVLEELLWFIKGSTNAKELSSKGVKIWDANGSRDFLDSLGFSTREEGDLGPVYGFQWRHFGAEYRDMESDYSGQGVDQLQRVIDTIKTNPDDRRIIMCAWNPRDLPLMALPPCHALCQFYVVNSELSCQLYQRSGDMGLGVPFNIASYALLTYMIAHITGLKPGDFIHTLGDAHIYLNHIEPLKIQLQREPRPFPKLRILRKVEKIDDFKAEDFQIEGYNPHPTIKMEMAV

FaDu [16] = assay: Growth inhibition of human squamous cell carcinoma FaDu; format: functional, cell-based
FaDu [17] = assay: Protection of FaDu cells from growth inhibitory effects of compound by 10 uM leucovorin (LV); format: functional, Homo sapiens; set-up: scale not given: the % may be the effect or the level left
CCRF-CEM [18] = assay: Growth inhibition of human T-lymphoblastic leukemia cell line CCRF-CEM; format: functional, cell-based
FaDu [19] = assay: the growth inhibition of, (during continuous exposure) human squamous cell carcinoma FaDu at resistance mechanism - sensitive
R30dm-CCRF-CEM [20] = assay: the growth inhibition of, (during continuous exposure) methotrexate resistant human T-lymphoblastic leukemia cell subline R30dm at resistance mechanism - decreased FPGS; format: functional, cell-based

Row | SMILES | IC50 [1] | IC50 (ACHN) | IC50 (Dihydrofolate reductase [2]) | IC50 (Dihydrofolate reductase [3]) | IC50 (SK-5) | IC50 (Dihydrofolate reductase [4]) | IC50 (CCRF-CEM [5]) | IC50 (Dihydrofolate reductase [6]) | Control (FaDu [7]) | Km [10] | Vmax (Homo sapiens) | Control (FaDu [11]) | Control (FaDu [12]) | Control (FaDu [13]) | Control (FaDu [17]) | further results
1 | COc1cc(NCc2coc3nc(N)nc(N)c23)cc(OC)c1OC | 4 µM | > 130 µM | > 26 µM | > 26 µM | > 130 µM | > 37 µM | 111 µM | > 4 µM | – | – | – | – | – | – | – | –
2 | COc1ccc(OC)c(NCc2coc3nc(N)nc(N)c23)c1 | > 21 µM | > 160 µM | > 15 µM | > 31 µM | > 160 µM | > 21 µM | 132 µM | > 21 µM | – | – | – | – | – | – | – | –
3 | Nc1nc(N)c2c(CNc3cc(Cl)c(Cl)c(Cl)c3)coc2n1 | > 3.9 µM | 40.9 µM | > 25 µM | > 25 µM | 47.6 µM | 25.6 µM | 10.6 µM | 8.3 µM | – | – | – | – | – | – | – | –
4 | Nc1nc(N)c2c(CNc3ccc(C(=O)NC(CCC(=O)O)C(=O)O)cc3)coc2n1 (configuration not stated) | 0.7 µM | > 100 µM | 0.45 µM | 0.56 µM | > 100 µM | 1.3 µM | 0.59 µM | 0.9 µM | 4.9% | 1.9 µM | 0.45 rel | 82% | 18.4% | 4.5% | 110% | IG50 (K562): 0.06 µM; IG50 (IGROV-1): >100 µM; IG50 (PC-3): 0.7 µM; IG50 (786-0): 0.91 µM; EC50 (CCRF-CEM [8]): 3.17 µM; EC50 (R30dm-CCRF-CEM [9]): 0.663 µM; IG50 (MDA-N): 1.73 µM; IG50 (HCT-116): 0.09 µM; IG50 (NCI-H460): 3.75 µM; IG50 (LOX IMVI): 1.23 µM; IG50 (MCF7): 6.31 µM; IG50 (MDA-MB-435): 45.8 µM; IG50 (SF-268): 1.77 µM; IG50 (U-251): 1.97 µM; IG50 (HL-60): 0.02 µM; IC50 (Thymidylate synthase [14]): > 200 µM; IC50 (Thymidylate synthase [15]): > 200 µM; EC50 (FaDu [16]): 0.126 µM; EC50 (CCRF-CEM [18]): 0.142 µM
5 | Nc1nc(N)c2c(CNc3ccc(Cl)c(Cl)c3)coc2n1 | – | > 150 µM | > 15 µM | > 3 µM | > 150 µM | 35.2 µM | 40.9 µM | > 35 µM | – | – | – | – | – | – | – | –
6 | CN(Cc1coc2nc(N)nc(N)c12)c1ccc(C(=O)NC(CCC(=O)O)C(=O)O)cc1 (configuration not stated) | 19.8 µM | 0.837 µM | – | 0.22 µM | 14 µM | 0.43 µM | 0.043 µM | 0.035 µM | 6.6% | 4.65 µM | 0.75 rel | 80% | 17.1% | 1.9% | 106% | IG50 (K562): 0.024 µM; IG50 (IGROV-1): 0.73 µM; IG50 (PC-3): <0.01 µM; IG50 (786-0): 0.07 µM; EC50 (CCRF-CEM [8]): 2.27 µM; EC50 (R30dm-CCRF-CEM [9]): 1.03 µM; IG50 (MDA-N): 0.065 µM; IG50 (HCT-116): 0.02 µM; IG50 (NCI-H460): 0.15 µM; IG50 (LOX IMVI): 0.04 µM; IG50 (MCF7): 0.08 µM; IG50 (MDA-MB-435): 0.09 µM; IG50 (SF-268): 0.59 µM; IG50 (U-251): 0.75 µM; IG50 (HL-60): <0.01 µM; IC50 (Thymidylate synthase [14]): > 200 µM; IC50 (Thymidylate synthase [15]): > 200 µM; EC50 (FaDu [16]): 0.055 µM; EC50 (CCRF-CEM [18]): 0.047 µM
7 | Nc1nc(N)c2nc(CNc3ccc(C(=O)N[C@@H](CCC(=O)O)C(=O)O)cc3)cnc2n1 [AMINOPTERIN] | – | – | – | – | – | – | – | – | – | 6.8 µM | 1 rel | – | – | – | – | –
8 | CN(Cc1cnc2nc(N)nc(N)c2n1)c1ccc(C(=O)N[C@@H](CCC(=O)O)C(=O)O)cc1 [METHOTREXATE] | – | – | – | – | – | – | – | – | 2.5% | – | – | 98% | 7.3% | 11% | 114% | EC50 (FaDu [19]): 0.019 µM; EC50 (R30dm-CCRF-CEM [20]): 0.018 µM
